Measured values published in the NIST ThermoML archive (doi:10.1016/j.tca.2009.07.002).

Test: xn = mol fraction of the nth substance listed
Details: 101 kPa, Liquid, Vibrating tube method

NC1CCCCC1 [cyclohexylamine] + CCCCO
mass density [kg/m3]
Details | 288.15 K | 293.15 K | 298.15 K | 303.15 K | 308.15 K | 313.15 K | 318.15 K | 323.15 K
x2 = 0 | 871.29 | 866.747 | 862.207 | 857.671 | 853.138 | 848.607 | 844.073 | 839.547
x2 = 0.0499 | 870.402 | 865.907 | 861.409 | 856.914 | 852.415 | 847.912 | 843.406 | 838.847
x2 = 0.1019 | 869.284 | 864.828 | 860.372 | 855.914 | 851.45 | 846.979 | 842.499 | 838.018
x2 = 0.1499 | 868.221 | 863.8 | 859.375 | 854.945 | 850.509 | 846.063 | 841.605 | 837.144
x2 = 0.1997 | 867.037 | 862.648 | 858.251 | 853.85 | 849.438 | 845.013 | 840.578 | 836.136
x2 = 0.2995 | 864.139 | 859.8 | 855.453 | 851.095 | 846.722 | 842.337 | 837.935 | 833.516
x2 = 0.4 | 860.506 | 856.206 | 851.899 | 847.581 | 843.244 | 838.892 | 834.521 | 830.136
x2 = 0.4994 | 855.958 | 851.708 | 847.444 | 843.167 | 838.874 | 834.561 | 830.229 | 825.872
x2 = 0.6006 | 850.147 | 845.964 | 841.767 | 837.554 | 833.322 | 829.067 | 824.783 | 820.478
x2 = 0.6977 | 843.134 | 839.036 | 834.924 | 830.791 | 826.637 | 822.458 | 818.247 | 814.01
x2 = 0.7497 | 838.964 | 834.921 | 830.861 | 826.78 | 822.671 | 818.541 | 814.376 | 810.181
x2 = 0.7984 | 834.505 | 830.511 | 826.498 | 822.464 | 818.404 | 814.315 | 810.191 | 806.034
x2 = 0.85 | 829.604 | 825.664 | 821.703 | 817.72 | 813.708 | 809.66 | 805.587 | 801.472
x2 = 0.8993 | 824.498 | 820.606 | 816.697 | 812.762 | 808.799 | 804.804 | 800.769 | 796.696
x2 = 0.9508 | 819.064 | 815.223 | 811.359 | 807.471 | 803.552 | 799.601 | 795.606 | 791.569

CCCCO [butan-1-ol] + CCCCCCC
mass density [kg/m3]
Details | 288.15 K | 293.15 K | 298.15 K | 303.15 K | 308.15 K | 313.15 K | 318.15 K | 323.15 K
x1 = 0.0691 | 692.997 | 688.732 | 684.439 | 680.112 | 675.754 | 671.356 | 666.921 | 662.457
x1 = 0.0999 | 695.43 | 691.164 | 686.867 | 682.541 | 678.179 | 673.778 | 669.334 | 664.851
x1 = 0.1495 | 699.575 | 695.309 | 691.013 | 686.688 | 682.323 | 677.919 | 673.469 | 668.978
x1 = 0.1701 | 701.352 | 697.089 | 692.795 | 688.469 | 684.105 | 679.699 | 675.246 | 670.749
x1 = 0.2 | 703.971 | 699.708 | 695.42 | 691.091 | 686.729 | 682.324 | 677.872 | 673.376
x1 = 0.2497 | 708.55 | 704.296 | 700.016 | 695.692 | 691.331 | 686.93 | 682.482 | 677.987
x1 = 0.2507 | 708.652 | 704.392 | 700.109 | 695.793 | 691.434 | 687.035 | 682.589 | 678.099
x1 = 0.2999 | 713.405 | 709.158 | 704.88 | 700.571 | 696.222 | 691.828 | 687.391 | 682.909
x1 = 0.3501 | 718.522 | 714.283 | 710.016 | 705.715 | 701.373 | 696.989 | 692.557 | 688.076
x1 = 0.3998 | 723.818 | 719.595 | 715.341 | 711.055 | 706.726 | 702.355 | 697.935 | 693.471
x1 = 0.4497 | 729.369 | 725.163 | 720.925 | 716.653 | 712.34 | 707.984 | 703.577 | 699.118
x1 = 0.4999 | 735.288 | 731.11 | 726.892 | 722.64 | 718.343 | 714.006 | 709.618 | 705.176
x1 = 0.5516 | 741.637 | 737.484 | 733.291 | 729.062 | 724.793 | 720.478 | 716.114 | 711.695
x1 = 0.6497 | 754.667 | 750.57 | 746.442 | 742.276 | 738.07 | 733.819 | 729.516 | 725.167
x1 = 0.6999 | 761.833 | 757.773 | 753.681 | 749.559 | 745.39 | 741.178 | 736.918 | 732.609
x1 = 0.7502 | 769.372 | 765.348 | 761.298 | 757.214 | 753.09 | 748.919 | 744.697 | 740.419
x1 = 0.7999 | 777.249 | 773.267 | 769.263 | 765.22 | 761.14 | 757.016 | 752.839 | 748.617
x1 = 0.8498 | 785.51 | 781.573 | 777.613 | 773.62 | 769.591 | 765.519 | 761.397 | 757.222
x1 = 0.9006 | 794.437 | 790.548 | 786.635 | 782.692 | 778.716 | 774.698 | 770.631 | 766.522
x1 = 1 | 813.373 | 809.573 | 805.762 | 801.923 | 798.053 | 794.147 | 790.231 | 786.238

NC1CCCCC1 [cyclohexylamine] + CCCCCCC
mass density [kg/m3]
Details | 288.15 K | 293.15 K | 298.15 K | 303.15 K | 308.15 K | 313.15 K | 318.15 K | 323.15 K
x1 = 0.0501 | 694.788 | 690.573 | 686.334 | 682.072 | 677.784 | 673.467 | 669.12 | 664.739
x1 = 0.1002 | 701.818 | 697.601 | 693.36 | 689.097 | 684.805 | 680.49 | 676.146 | 671.776
x1 = 0.1501 | 709.079 | 704.855 | 700.609 | 696.341 | 692.046 | 687.73 | 683.386 | 679.015
x1 = 0.2305 | 721.227 | 716.988 | 712.729 | 708.452 | 704.15 | 699.827 | 695.479 | 691.106
x1 = 0.3004 | 732.296 | 728.038 | 723.765 | 719.477 | 715.17 | 710.839 | 706.489 | 702.117
x1 = 0.401 | 749.067 | 744.783 | 740.484 | 736.173 | 731.847 | 727.504 | 723.139 | 718.756
x1 = 0.4497 | 757.546 | 753.244 | 748.933 | 744.614 | 740.28 | 735.927 | 731.554 | 727.16
x1 = 0.5597 | 777.524 | 773.195 | 768.854 | 764.509 | 760.149 | 755.773 | 751.384 | 746.981
x1 = 0.6001 | 785.155 | 780.814 | 776.463 | 772.102 | 767.732 | 763.352 | 758.953 | 754.544
x1 = 0.6498 | 794.839 | 790.479 | 786.113 | 781.744 | 777.362 | 772.968 | 768.563 | 764.139
x1 = 0.6994 | 804.717 | 800.344 | 795.962 | 791.575 | 787.181 | 782.776 | 778.36 | 773.935
x1 = 0.7999 | 825.611 | 821.199 | 816.783 | 812.36 | 807.934 | 803.499 | 799.055 | 794.605
x1 = 0.8992 | 847.523 | 843.061 | 838.598 | 834.132 | 829.662 | 825.189 | 820.71 | 816.229
x1 = 1 | 871.29 | 866.747 | 862.207 | 857.671 | 853.138 | 848.607 | 844.073 | 839.547
